# Results: patent US20160106104A1, “SILICONE-BASED ANTIMICROBIAL COMPOSITION” (UNIVERSITE DU MAINE, priority 2013, published 2016)
# Key:
# Type in all cases: cell-based
# [1] = tested on: Candida albicans IHEM 14796; assay: Tests on yeast according to ISO 22196; settings: incubation 24 h
# Experimental: The antibacterial activity of the silicone compositions of the invention was tested on the yeast line Candida albicans IHEM 14796, according to the procedure of the ISO 22196 standard (second edition, 2011).
# (§1) The silicone films prepared in Example 5A were used.
# The procedure followed is identical with that of Example 5A.
# [2] = tested on: Enterobacter cloacae DSM 30054; assay: Antibacterial activity of silicone films, ISO 22196; settings: incubation 24 h at 37° C., detection limit log10(N)=1.4
# Experimental: (§2) The antibacterial activity of the silicone compositions of the invention was tested on 6 lines of bacteria, according to the procedure for the ISO 22196 standard (second edition, 2011).
# (§3) The lines of tested bacteria are: Klebsiella pneumoniae DSM 16609, Staphylococcus aureus ATCC 25923, Enterococcus faecalis ATCC 29212, Escherichia coli ATCC 8739, Acinetobacter baumannii CIP 70.34 and Enterobacter cloacae DSM 30054.
# (§4) Silicone films were prepared according to Examples 2 and 3, comprising 0%, 2% or 5% of antimicrobial agent PHMG-DBS, OMIM-BF4 or DMIM-BF4 (7 types of silicone films were therefore prepared).
# (§5) Square pieces of silicone films with dimensions 25 mm×25 mm were cut out, as well as squares of polypropylene of dimension 20 mm×20 mm. The latter were passed in the autoclave at 115° C. for 20 minutes.
# (§6) The bacteria were cultivated overnight at 37° C. in an agar culture medium. Suspensions of bacteria were then prepared in a nutrient broth culture medium with a bacterial concentration of 6.10^5 CFU/ml.
# (§7) Each silicone square (not sterilized) was placed on a lid of a Petri dish with a diameter of 55 mm, which itself was placed in a Petri dish with a diameter of 94 mm. 100 μl of bacterial suspension were deposited on each silicone square and spread out by means of a polypropylene square. 10 ml of sterile water were added in the bottom of the Petri dish with a diameter of 94 mm in order to ensure high relative humidity during incubation at 37° C. for 24 hours. For each silicone film type, three specimens were made.
# (§8) After incubation, each silicone film was placed in a new Petri dish and washed with 10 ml of […] (SCDLP, according to the standard procedure of the ISO standard) for recovering the bacteria. After 5 washes, the SCDLP suspension was diluted down to 10^−6, and 1 ml of obtained solution was placed on a gelose plate PCA (duplicated). Each plate was incubated at 37° C. for 24 hours. The number of colonies on each Petri dish was then counted.
# (§9) The viability of the bacteria depending on the obtained results was calculated by means of the following formula: […]
# (§10) wherein: • N refers to the number of viable bacteria observed per cm^2 of each tested sample, • C refers to the average count of colonies on each gelose plate PCA, and • D refers to the dilution factor used for the counting.
# (§11) The results of the viability measurements of the bacteria, expressed in log10(N), are gathered in Table 1, the detection limit having been set to a number of recovered bacteria equal to 10 (i.e. log10(N)=1.4).
# [3] = tested on: Enterococcus faecalis ATCC 29212; assay: as above; settings: incubation 24 h at 37° C., detection limit log10(N)=1.4
# Experimental: as §2, §3, §4, §5, §6, §7, §8, §9, §10, §11
# [4] = tested on: Klebsiella pneumoniae DSM 16609; assay: as above; settings: incubation 24 h at 37° C., detection limit log10(N)=1.4
# Experimental: as §2, §3, §4, §5, §6, §7, §8, §9, §10, §11
# [5] = tested on: Escherichia coli ATCC 8739; assay: as above; settings: incubation 24 h at 37° C., detection limit log10(N)=1.4
# Experimental: as §2, §3, §4, §5, §6, §7, §8, §9, §10, §11
# [6] = tested on: Staphylococcus aureus ATCC 25923; assay: as above; settings: incubation 24 h at 37° C., detection limit log10(N)=1.4
# Experimental: as §2, §3, §4, §5, §6, §7, §8, §9, §10, §11
# [7] = tested on: Acinetobacter baumannii CIP 70.34; assay: as above; settings: incubation 24 h at 37° C., detection limit log10(N)=1.4
# Experimental: as §2, §3, §4, §5, §6, §7, §8, §9, §10, §11
# [8] = tested on: Penicillium chrysogenum HEM 20859; assay: Tests on a fungus according to ISO 16869 (modified); parameters: key: mark 0 is ascribed when no growth is observed; mark 1 is ascribed when beginning of growth is observed; mark 2 is ascribed when obvious growth is observed; settings: silicone film with 5% antimicrobial agent, 25° C., naked eye mark
# Experimental: The antifungal activity of the silicone compositions of the invention was tested on the fungus line Penicillium chrysogenum HEM 20859, according to the procedure of the ISO 16869 standard (second edition, 2008).
# as §1
# Thus, each silicone film sample was placed in a Petri dish between a lower layer of nutrient salt agar (20 ml) and an upper layer of Peptone Dextrose agar in which fungus spores were dispersed. The remainder of the procedure of the aforementioned standard was followed.
# The culture media were incubated at 25° C. for at least 48 h, and for up to 7 days.
# The results are evaluated with the naked eye: • mark 0 is ascribed when no growth is observed, • mark 1 is ascribed when beginning of growth is observed, and • mark 2 is ascribed when obvious growth is observed.
# [9] = silicone film with 2% antimicrobial agent
# [10] = silicone film with 5% antimicrobial agent
Structure (SMILES),"Viability of yeasts (log10(N)) Candida albicans [1, 9]","Viability of yeasts (log10(N)) Candida albicans [1, 10]","Viability of bacteria (log10(N)) Enterobacter cloacae [2, 9]","Viability of bacteria (log10(N)) Enterobacter cloacae [2, 10]","Viability of bacteria (log10(N)) Enterococcus faecalis [3, 9]","Viability of bacteria (log10(N)) Enterococcus faecalis [3, 10]","Viability of bacteria (log10(N)) Klebsiella pneumoniae [4, 9]","Viability of bacteria (log10(N)) Klebsiella pneumoniae [4, 10]","Viability of bacteria (log10(N)) Escherichia coli [5, 9]","Viability of bacteria (log10(N)) Escherichia coli [5, 10]","Viability of bacteria (log10(N)) Staphylococcus aureus [6, 9]","Viability of bacteria (log10(N)) Staphylococcus aureus [6, 10]","Viability of bacteria (log10(N)) Acinetobacter baumannii [7, 9]","Viability of bacteria (log10(N)) Acinetobacter baumannii [7, 10]","Observation of the growth of fungi Penicillium chrysogenum, Incubation for 48 h ([8]; 48 h)","Observation of the growth of fungi Penicillium chrysogenum, Incubation for 7 days ([8]; 7 days)"
"CCCCCCCCn1cc[n+](C)c1.F[B-](F)(F)F [OMIM-BF4, 1-octyl-3-methylimidazolium tetrafluoroborate]",6.1 log10(N),3.0 log10(N),3.6 log10(N),1.4 log10(N),3.6 log10(N),1.4 log10(N),3.3 log10(N),4.6 log10(N),1.4 log10(N),1.4 log10(N),1.6 log10(N),1.4 log10(N),5.8 log10(N),1.4 log10(N),,
"CCCCCCCCCCCCn1cc[n+](C)c1.F[B-](F)(F)F [DMIM-BF4, 1-dodecyl-3-methylimidazolium tetrafluoroborate]",1.4 log10(N),1.4 log10(N),1.4 log10(N),1.4 log10(N),1.4 log10(N),1.4 log10(N),1.4 log10(N),1.4 log10(N),1.4 log10(N),1.4 log10(N),1.4 log10(N),1.4 log10(N),1.6 log10(N),1.4 log10(N),0,0
